The source of these data is patent US20060183794A1, “Drug composition containing nf-kb inhibitor” (priority 2002, published 2006).

For data set [1], the system named is human breast cancer cell line MCF-7. Description: In vitro proliferation of MCF-7 (trypan blue cell count). It is filed as cell-based. The procedure: The human breast cancer cell line MCF-7 (NF-κB non-constitutively activated tumor) was incubated in 24, 48, and 72 hours in the presence of 10 and 50 μg/ml DHMEQ, and the proliferation-suppressive effect was examined.
MCF-7 was plated in 6 well plates at 1×10^5/well. The next day, the culture media were changed into those (5 ml) containing DHMEQ at 10 and 50 μg/ml and into the control medium (5 ml) containing only DMSO, which is used for dissolution of DHMEQ, in equal amount to those containing each concentration of DHMEQ. The assay was performed in three wells per each group. Immediately after the change, cells were incubated for 24, 48, and 72 hours. Subsequently, the cells were scraped with trypsin+EDTA. The number of cells was counted with trypan blue and averages as well as standard deviations were calculated. Data for each group were obtained and plotted in comparison with the control cells treated with DMSO only.

Data set [2] deals with MM cell lines, KMM1, RPMI8226, and U266. Description: Apoptosis of multiple myeloma cell lines (Annexin-V, Hoechst staining). In kind it is cell-based. The procedure:
Further, to investigate apoptosis induction of MM cell lines by DHMEQ, the MM cell lines, KMM1, RPMI8226, and U266, were incubated for 0, 24, and 48 hours at a concentration of 10 μg/ml and the apoptosis was examined by Annexin-V staining.
Further, to confirm apoptosis induction in MM cell lines by DHMEQ, the MM cell lines, KMM1, RPMI8226, and U266, were incubated for 72 hours at a concentration of 10 μg/ml and the apoptosis was examined by observing nuclear condensation or fragmentation with a fluorescence microscope, using Hoechst staining.

Data set [3] has as its system cachexia symptoms induced by JCA-1 cells. Description: Cancer cachexia model, JCA-1 tumor-bearing BALB/c nude mice. It is filed as in vivo. The procedure:
To assay the effect of the compounds represented by the general formula (1) or pharmacologically acceptable salts thereof on cachexia, cachexia-induced BALB/c nude mice were used as model mice of human patients with cachexia. Here, cachexia symptoms were induced using the androgen-insensitive human prostatic cancer cell-line JCA-1.
To measure the effect of DHMEQ on cachexia symptoms, the cachexia model mice were prepared using the aforementioned nude mice. JCA-1 cells (1×10^7 cells) suspended in 100 μl of PBS were inoculated subcutaneously into the flank of six-old-week nude mice (hereafter called tumor-bearing mice). Fourteen days after the inoculation, when the tumors had reached palpable sizes, the inoculated mice were randomly assigned to three groups: group 2 (Gr2; n=13), given DHMEQ (8 mg/kg bw) every day; group 3 (Gr3; n=13), given DMSO every day; and group 4 (Gr4; n=11), given nothing. Group 1 (Gr1; n=14), consisting of normal nude mice not inoculated with JCA-1 cells (hereinafter called “normal mice”), was also included. From the next day of administration of DHMEQ, the body weights (FIG. 20) and the tumor weights (FIG. 21) calculated from the tumor diameters were measured every other day. On day 26 after the start of administration of DHMEQ, all mice were dissected and the tumor weights (FIG. 22), the weights of fat around the testis (FIG. 23) the gastrocnemius weights (FIG. 24), and the hematocrits (FIG. 25; the ratio of the volume of blood cell components to that of whole blood, which can be measured by blood centrifugation) were measured. The measured values were summed up for every group.

Data set [4] relates to human pancreatic cancer cell line Colo357. The data set is described as follows: Annexin-V/PI flow cytometry apoptosis assay, Colo357 with irradiation. It is filed as cell-based. Here is the method: Next, the apoptosis-enhancing effect of DHMEQ on irradiated tumor cells was investigated. The human pancreatic cancer cell line Colo357 given 10 μg/ml DHMEQ for six hours, the human pancreatic cancer cell line Colo357 irradiated with 20 Gy radiation and then incubated for 6 hours, and the human pancreatic cancer cell line Colo357 given 10 μg/ml DHMEQ for six hours immediately after irradiation with 20 Gy radiation were subjected to Annexin-V/propidium iodide (PI) double staining. The apoptotic cells (lower right) were measured by flow cytometry and the ratio was calculated. […] On the other hand, in the cells to which DHMEQ was administered after irradiation with 20 Gy radiation, the apoptosis-inducing ability is enhanced three-fold, as compared with the cells only irradiated with 20 Gy radiation
On the technique in general: In flow cytometry, cells or beads pass a laser one at a time.

The mark [5] stands for this setting: 8 mg/kg bw every day, day 26, Gr2 vs Gr3 and Gr4.

With `O=C(NC1=CC(=O)C2OC2C1O)c1ccccc1O` (centres unmarked) [DHMEQ, 5,6-epoxy-4-hydroxy-3-salicyloylamino-2-cyclohexenone], in data set [1] (10 μg/ml, 24 hours), the “cells survived compared with the control” value was determined as 39%. Besides, the “cells survived compared with the control” value in data set [1] (10 μg/ml, 48 hours) stood at 25%. In addition, the “cells survived compared with the control” value in data set [1] (10 μg/ml, 72 hours) was determined as 17%. For the same compound, the “cells survived compared with the control” value in data set [1] (50 μ/ml, in and after 24 hours) is recorded as “no cells were observed to survive”. Also, the “apoptosis (Annexin-V staining)” value in data set [2] (10 μg/ml, 0, 24, 48 hours) is reported as “apoptosis had been induced”. Also, in data set [2] (10 μg/ml, 72 hours), the “apoptosis (Hoechst staining, nuclear fragmentation)” value is recorded as “images of nuclear fragmentation by DHMEQ treatment were observed”. In data set [3] (8 mg/kg bw every day (Gr2) vs Gr3 and Gr4), the body weight reduction entry is “significantly suppressed”. Moreover, in data set [3] (8 mg/kg bw every day, day 26), the “influence on internal organ weights” value is listed as “No unfavorable influence” and the “regressive effect on tumors (tumor weight)” value is “no regressive effect”. In data set [3] (setting [5]), the gastrocnemius weight result was “weight reduction was significantly suppressed”, the hematocrit entry is on record as “significant tendency of recovery” and the “weight of fat around the testis” value was “weight reduction was significantly suppressed”. Moreover, in data set [4] (10 μg/ml six hours after 20 Gy radiation), the “apoptosis-inducing ability versus irradiation only” value was “three-fold”. The “apoptosis induction by DHMEQ alone” value in data set [4] (10 μg/ml, six hours) was “apoptosis was not induced”.
